Laboratory results reported in ChEMBL document CHEMBL3832544, “DailyMed|setid=fb8a2e5b-fd23-4977-81de-a95f4af168e2 | ONMEL- itraconazole tablet|Merz Pharmaceuticals, LLC”.

What was measured:
Type in all cases: ADME, organism-based
Set-up in all cases: dose 200 mg, route oral
Homo sapiens [1] = experiment: (§1) The pharmacokinetic parameters of Itraconazole after single oral administration of 200 mg Itraconzole to 9 male and 9 female healthy subjects in fasting and in fed conditions; conditions: in vivo, po, dietary status Fasted, dosed compound id 2, dosed compound name ITRACONAZOLE, gender male and female, regimen Single dose, tissue Plasma
[2] = as §1; conditions: both, human, in vivo, dietary status Fed, dosed compound id 2, dosed compound name ITRACONAZOLE, gender male and female, regimen Single dose, tissue Plasma
Homo sapiens [3] = experiment: (§2) The steady-state pharmacokinetics of itraconazole analyzed after multiple oral dosing of 16 healthy volunteers with 200 mg Itraconazole following a moderate-fat breakfast once daily for 14 days in an open-label study; conditions: in vivo, po, 336 h, dietary status Fed with moderate-fat breakfast, dosed compound id 2, dosed compound name ITRACONAZOLE, gender male and female, regimen Multiple dose, tissue Plasma
[4] = as §2; conditions: human, in vivo, dietary status Fed with moderate-fat breakfast, dose 200 mg, dosed compound id 2, dosed compound name ITRACONAZOLE, gender male and female, regimen Multiple dose, route oral, tissue Plasma

Tmax (Homo sapiens [1]; dose 200 mg): 2.9 h
AUC(0-inf) (Homo sapiens [1]): 2270 ng·h/mL
Cmax (Homo sapiens [1]): 162 ng/mL
Cmax ([2]; po, 200 mg): 213 ng/mL
AUC ([2]; po, 200 mg, read-out: AUC(0-inf)): 3340 ng·h/mL
Tmax ([2]; dose 200 mg, route oral): 4.6 h
AUC(0-24) (Homo sapiens [3]; study dosing duration 1 day): 905.09 ng·h/mL
Cmax ss (Homo sapiens [3]; study dosing duration 1 day): 116.8 ng/mL
AUC(0-24) (Homo sapiens [3]; study dosing duration 14 day): 9046.81 ng·h/mL
Cmax ss (Homo sapiens [3]; study dosing duration 14 day): 658.1 ng/mL
Tmax ([4]; study dosing duration 1 day): 4 h
half-life ([4]; study dosing duration 14 day, read-out: t1/2 ss (converted)): 36.8 h
Compound: CCC(C)n1ncn(-c2ccc(N3CCN(c4ccc(OCC5COC(Cn6cncn6)(c6ccc(Cl)cc6Cl)O5)cc4)CC3)cc2)c1=O (configuration not stated) [ITRACONAZOLE]
